From patent publication US20090023718A1 (Aton Pharma, Inc., priority 2003, published 2009)
Like-named read-outs stand apart in the source and are kept apart here.

Legend:
[1] = system: murine erythroleukemia cell line SC9; test: MTS assay (Cell Titer 96 Aqueous One Solution Cell Proliferation Assay); assay type: cell-based; details: Mus musculus; SC9 cells, 48 hours incubation with increasing concentrations, inhibition of proliferation; mean ± spread (N)
Description: The novel compounds of the present invention were tested for their ability to inhibit proliferation of the murine erythroleukemia cell line SC9.
The MTS assay, also referred to as the Cell Titer 96 Aqueous One Solution Cell Proliferation Assay, is a colorimetric method for determining the number of viable cells in proliferation, cytotoxicity or chemosensitivity assays. The MTS reagent contains a novel tetrazolium compound [3-(4,5-dimethylthiazol-2-yl)-5-(3-carboxymethoxyphenyl)-2-(4-sulfophenyl)-2H-tetrazolium, inner salt] and electron coupling reagent (phenazine ethosulfate; PES). Murine erythroleukemia cells (SC-9) were incubated with vehicle or increasing concentrations of compound for 48 hours. Cell proliferation was quantitated by adding a small amount of the MTS reagent directly to culture wells, incubating for 1-4 hours and then recording the absorbance at 490 nm with a 96-well plate reader. The quantity of formazan product, as measured by […] absorbance, is directly proportional to the number of living cells in culture.

[2] = biological target: T1, histone deacetylase, subtype 1 (HDAC1) (Homo sapiens, UniProt Q13547); test: HDAC1-Flag assay (in vitro fluorescent deacetylation assay); assay type: biochemical; details: epitope-tagged human HDAC1 complex, substrate at Km, mean ± spread (N), read-out: HDAC Inhibition (IC50) nm
T1 construct: Flag; made in house
Description: Novel compounds were tested for their ability to inhibit histone deacetylase, subtype 1 (HDAC1) using an in vitro deacetylation assay. The enzyme source for this assay was an epitope-tagged human HDAC1 complex immuno-purified from stably expressing mammalian cells. The substrate consisted of a commercial product containing an acetylated lysine side chain (BIOMOL Research Laboratories, Inc., Plymouth Meeting, Pa.). Upon deacetylation of the substrate by incubation with the purified HDAC1 complex, a fluorophore is produced that is directly proportional to the level of deacetylation.

[3] = Table 1, compounds of formula II

T1 sequence (Q13547 whole entry): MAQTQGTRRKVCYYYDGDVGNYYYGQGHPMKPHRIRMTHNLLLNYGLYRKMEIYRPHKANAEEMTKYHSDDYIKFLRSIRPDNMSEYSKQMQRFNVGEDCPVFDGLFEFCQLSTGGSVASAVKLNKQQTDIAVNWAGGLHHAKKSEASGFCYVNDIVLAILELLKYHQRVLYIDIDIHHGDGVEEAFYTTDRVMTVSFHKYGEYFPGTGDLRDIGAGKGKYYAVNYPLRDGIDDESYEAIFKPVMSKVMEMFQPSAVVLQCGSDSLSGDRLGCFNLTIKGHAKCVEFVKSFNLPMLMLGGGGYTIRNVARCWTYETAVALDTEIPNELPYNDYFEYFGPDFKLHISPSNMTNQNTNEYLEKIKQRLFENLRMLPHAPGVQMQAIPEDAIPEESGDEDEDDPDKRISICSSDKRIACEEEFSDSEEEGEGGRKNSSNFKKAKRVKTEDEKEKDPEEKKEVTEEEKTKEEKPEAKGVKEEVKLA

| Structure (SMILES) | IC50 [1] [nM] | IC50 [2, 3] [nM] | IC50 ([2]; Table 4, compounds of formula V) [nM] |
| --- | --- | --- | --- |
| COc1ccc2nc(NC(=O)CN(CC(=O)Nc3nc4ccc(OC)cc4s3)C(=O)CCCCCC(=O)NO)sc2c1 [Compound 34, Heptanedioic acid bis-[(6-methoxy-benzothiazol-2-ylcarbamoyl)-methyl]-amide hydroxyamide] | 397 ± 98.2 | 7.6 ± 5.6 | – |
| O=C(CCCCCC(=O)N(CC(=O)NCCc1ccccc1)CC(=O)Nc1ccccc1)NO [Compound 8, Heptanedioic acid hydroxyamide (phenethylcarbamoyl-methyl)-phenylcarbamoylmethyl-amide] | 852 | 26 ± 5.6 | – |
| O=C(CCCCCCN(CCc1ccccc1)Cc1ccccc1)NO [Compound 81] | 934 | – | 159 ± 14.1 |
| O=C(CCCCCC(=O)N(CC(=O)Nc1nc2ccc(Cl)cc2s1)CC(=O)Nc1nc2ccc(Cl)cc2s1)NO [Compound 35, Heptanedioic acid bis-[(6-chloro-benzothiazol-2-ylcarbamoyl)-methyl]-amide hydroxyamide] | 645 | 10.6 ± 7.7 | – |
| O=C(CCCCCC(=O)N(CC(=O)Nc1ccc2c(c1)OCO2)CC(=O)Nc1ccc2c(c1)OCO2)NO [Compound 29, Heptanedioic acid bis-(benzo[1,3]dioxol-5-ylcarbamoylmethyl)-amide hydroxyamide] | 586 | 22.5 ± 16.2 | – |
